Data on three compounds can be found in patent US20120263848A1, “Organic Compounds” (priority 2009, published 2012).

Common to all, as to assay type: in vivo
For test [1], the system named is sweet sensitive panelists. The experiment in a line: Sweet enhancement in a cola beverage application (7% sucrose cola, R-index ranking). The method, then: A 1% ethanol solution of N-cycloheptyl-2-methylindoline-1-carboxamide was added into a 7% sucrose containing cola solution. […] To determine its isointensity a panel of trained experts was then asked to evaluate the taste (in particularly the sweet taste) of this sample solution in comparison to sample cola solutions containing 7%, 8%, 9% and 10% sucrose but no N-cycloheptyl-2-methylindoline-1-carboxamide. Panel testing was carried out in the following way: Twenty milliliters of each of the sample solutions was presented blind and in random order to 20 sweet sensitive panelists. In two replications (over 1 session), panelists were asked to rank the solutions from least sweet to most sweet. The data was then subjected to an R-index analysis as described in example 15.

Test [2] has as its system sweet sensitive panelists. The experiment in a line: Isointensity measurement in water against sucrose solutions (R-index ranking). The method, then: A 1% solution of N-cycloheptyl-2-methylindoline-1-carboxamide was prepared in ethanol. This 1% solution was then further diluted, using water, to create a 5 ppm sample solution of N-cycloheptyl-2-methylindoline-1-carboxamide. To determine the isointensity of this solution a panel of trained experts was then asked to evaluate the taste (in particularly the sweet taste) of this sample solution in comparison to 0.5%, 1% and 1.5% sample sucrose solutions. Panel testing was carried out in the following way: Twenty milliliters of each of the samples was presented blind and in counter balanced order following a William's Latin square design, to 20 sweet sensitive panelists. In two replications (over 1 session), panelists were asked to taste and rank the solutions from least sweet to most sweet. […] A 1% solution of (R)-N-cyclooctyl-2-methylindoline-1-carboxamide was prepared in ethanol. This 1% solution was then further diluted, using water, to create a 2 ppm sample solution of (R)-N-cyclooctyl-2-methylindoline-1-carboxamide. To determine the isointensity of this solution a panel of trained experts was then asked to evaluate the taste (in particularly the sweet taste) of this sample solution in comparison to 0.5%, 1% and 1.5% sample sucrose solutions. Panel testing was carried out in the following way: Twenty milliliters of each of the samples was presented blind and in counter balanced order following a William's Latin square design, to 20 sweet sensitive panelists. In two replications (over 1 session), panelists were asked to taste and rank the solutions from least sweet to most sweet.

In another test the test system is panel of trained experts. The experiment in a line: Taste evaluation of diluted sample solutions by a panel of trained experts. Conditions: for taste of sample solutions (inherent sweetness): 1% ethanol solutions diluted with water to differing ppm concentrations; for effectiveness at creating modifying, or enhancing the sweet flavour of compositions and consumable products: general statement of the applicant. As for the experimental part:
1% solutions of compounds of formula (I) were prepared in ethanol. These 1% solutions were then further diluted, using water, to create sample solutions of differing ppm concentrations. A panel of trained experts was then asked to evaluate the taste of each sample solution and to comment on any inherent sweetness, other perceived taste, or flavor attributes. After tasting each sample the experts rinsed their mouths with water and a break was observed until the stimulus disappeared. […]

Test [3] has as its system sweet sensitive panelists. The experiment in a line: Sweet enhancement in 7% sucrose (aqueous solution, R-index ranking). As for the experimental part:
A 1% ethanol solution of (R)-N-cyclooctyl-2-methylindoline-1-carboxamide was added into an aqueous 7% sucrose solution. […] To determine its isointensity a panel of trained experts was then asked to evaluate the taste (in particularly the sweet taste) of this sample solution in comparison to aqueous sample solutions containing 7%, 8%, 9% and 10% sucrose, but without added (R)-N-cyclooctyl-2-methylindoline-1-carboxamide. Panel testing was carried out in the following way: Twenty milliliters of each of the sample solutions was presented blind and in random order to 20 sweet sensitive panelists. In two replications (over 1 session), panelists were asked to rank the solutions from least sweet to most sweet. The data was then subjected to an R-index analysis as described in example 5.

The mark [4] stands for this setting: 7% sugar cola + 5 ppm vs. 7% sugar.
[5] abbreviates: 7% sugar cola + 5 ppm vs. 8% sugar.
[6] abbreviates: 7% sugar cola + 5 ppm vs. 9% sugar.
Where [7] appears, read: 7% sugar cola + 5 ppm vs. 10% sugar.
Setting [8] is: 5 ppm in water vs. 0.5% sucrose solution.
Setting [9] is: 5 ppm in water vs. 1.0% sucrose solution.
[10] abbreviates: 5 ppm in water vs. 1.5% sucrose solution.
Where [11] appears, read: 2 ppm in water vs. 0.5% sucrose solution.
The mark [12] stands for this setting: 2 ppm in water vs. 1.0% sucrose solution.
The mark [13] stands for this setting: 2 ppm in water vs. 1.5% sucrose solution.

Entries after “also recorded” stand apart in the source; their conditions may differ.

For `CC1Cc2ccccc2N1C(=O)NC1CCCCCC1` (centres unmarked) [Example 2, N-cycloheptyl-2-methylindoline-1-carboxamide], in test [1] (5 ppm in 7% sucrose cola, iso sweet with 8% instead of expected 7.5% sucrose), the sweetness enhancer behaviour result is on record as “behaving as a sweetness enhancer”. The “Experimental Compound Sweetness” value was “significantly more sweet” in test [1] (setting [4]); “Iso sweet” in test [1] (setting [5]); “significantly less sweet” in test [1] (setting [6]); “significantly less sweet” in test [1] (setting [7]); “Iso-sweet; also recorded: iso sweet” in test [2] (setting [8]); “significantly less sweet” in test [2] (setting [9]). In addition, the “Experimental Compound Sweetness” value in test [2] (setting [10]) is recorded as “significantly less sweet”. Moreover, the R-index in test [1] (setting [4]) is given as 37.72; in test [1] (setting [5]), 40.03; in test [1] (setting [6]), 68.97; in test [1] (setting [7]) it was 90.78; in test [2] (setting [8]) it was 39.38; in test [2] (setting [9]) it was 78.63. The compound also showed a R-index in test [2] (setting [10]) of 92.00. Moreover, the “Significantly different (p < 0.05)” value is “Yes” in test [1] (setting [4]); “No” in test [1] (setting [5]); “Yes” in test [1] (setting [6]); “Yes” in test [1] (setting [7]); “No” in test [2] (setting [8]); “Yes” in test [2] (setting [9]). In test [2] (setting [10]), the “Significantly different (p < 0.05)” value was “Yes”.
`C[C@@H]1Cc2ccccc2N1C(=O)NC1CCCCCC1` [Example 18, (R)-N-cycloheptyl-2-methylindoline-1-carboxamide]: in the test on panel of trained experts, the “taste of sample solutions (inherent sweetness)” value is “sweet”; the “effectiveness at creating modifying, or enhancing the sweet flavour of compositions and consumable products” value was “particularly effective”.
`C[C@@H]1Cc2ccccc2N1C(=O)NC1CCCCCCC1` [Example 20, (R)-N-cyclooctyl-2-methylindoline-1-carboxamide]: the sweetness enhancer behaviour entry in test [3] (2 ppm in 7% sucrose, iso sweet with 8% sucrose, expected less sweet than 8%) is listed as “behaving as a sweetness enhancer”. Also, the “Experimental Compound Sweetness” value is reported as “significantly more sweet” in test [3] (7% sugar + 2 ppm vs. 7% sugar); “Iso sweet” in test [3] (7% sugar + 2 ppm vs. 8% sugar); “significantly less sweet” in test [3] (7% sugar + 2 ppm vs. 9% sugar); “significantly less sweet” in test [3] (7% sugar + 2 ppm vs. 10% sugar); “significantly less sweet” in test [2] (setting [12]); “significantly less sweet” in test [2] (setting [13]). Besides, the R-index worked out at 35.53 in test [3] (7% sugar + 2 ppm vs. 7% sugar); 61.44 in test [3] (7% sugar + 2 ppm vs. 8% sugar); 77.09 in test [3] (7% sugar + 2 ppm vs. 9% sugar); 88.44 in test [3] (7% sugar + 2 ppm vs. 10% sugar); 27.00 in test [2] (setting [11]); 72.31 in test [2] (setting [12]). The R-index in test [2] (setting [13]) stood at 99.13. Besides, the “Significantly different (p < 0.05)” value was “Yes” in test [3] (7% sugar + 2 ppm vs. 7% sugar); “No” in test [3] (7% sugar + 2 ppm vs. 8% sugar); “Yes” in test [3] (7% sugar + 2 ppm vs. 9% sugar); “Yes” in test [3] (7% sugar + 2 ppm vs. 10% sugar); “Yes” in test [2] (setting [11]); “Yes” in test [2] (setting [12]). In addition, in test [2] (setting [13]), the “Significantly different (p < 0.05)” value is recorded as “Yes”. The “taste of sample solutions (inherent sweetness)” value in the test with panel of trained experts is recorded as “sweet”. Moreover, in the test with panel of trained experts, the “effectiveness at creating modifying, or enhancing the sweet flavour of compositions and consumable products” value is “particularly effective”.
